Measurements from patent US9675068B2, “Solid form sodium lauryl sulfate (SLS) crawling pest elimination composition” (ECOLAB USA INC., priority 2008, dated 2017).

Test: Ability of SLS forms to go into solution in water
Format: physicochemical
Details: at 12% and 18%
Description: In one embodiment, the pesticide composition of the present invention includes a combination of sodium lauryl sulfate (SLS) and water. In particular, the pesticide composition includes a combination of a solid form of sodium lauryl sulfate and water. Suitable component concentrations for a concentrate of the pesticide composition include between about 90% and about 100% sodium lauryl sulfate by weight and balance water, particularly between about 93% and about 100% sodium lauryl sulfate by weight and balance water and more particularly between about 95% and about 100% sodium lauryl sulfate by weight and balance water. Suitable component concentrations for a use solution of the pesticide composition include between about 1% and about 10% sodium lauryl sulfate by weight and balance water and particularly between about 1% and about 6% sodium lauryl sulfate by weight and balance water. At concentrations higher than about 12% by weight sodium lauryl sulfate, solid form sodium lauryl sulfate may not effectively form a solution. In other embodiments, similar intermediate concentrate and use concentrations may also be present in the cleaning compositions of the invention.
The compositions of Examples 1, 2 and 3 are compositions of the present invention using needle form sodium lauryl sulfate (SLS) as the active ingredient in a pesticide composition. […]

- going into solution in water: would not go into solution
Structure (SMILES): CCCCCCCCCCCCOS(=O)(=O)[O-].[Na+] [needle form SLS, sodium lauryl sulfate]
